Test results reported in ChEMBL document CHEMBL2010748, “Structure-Activity Relationship Studies of HIV-1 Integrase Oligonucleotide Inhibitors” (ACS Med Chem Lett, 2011).

These compounds were tested against Human immunodeficiency virus type 1 integrase (Human immunodeficiency virus 1, UniProt Q7ZJM1) (assay: Inhibition of Human immunodeficiency virus 1 integrase 3'-processing activity expressed in Escherichia coli using 21-mer DNA and Mg2+ after 2 hrs by polyacrylamide gel electrophoresis).
Human immunodeficiency virus type 1 integrase, sequence (Q7ZJM1 whole entry): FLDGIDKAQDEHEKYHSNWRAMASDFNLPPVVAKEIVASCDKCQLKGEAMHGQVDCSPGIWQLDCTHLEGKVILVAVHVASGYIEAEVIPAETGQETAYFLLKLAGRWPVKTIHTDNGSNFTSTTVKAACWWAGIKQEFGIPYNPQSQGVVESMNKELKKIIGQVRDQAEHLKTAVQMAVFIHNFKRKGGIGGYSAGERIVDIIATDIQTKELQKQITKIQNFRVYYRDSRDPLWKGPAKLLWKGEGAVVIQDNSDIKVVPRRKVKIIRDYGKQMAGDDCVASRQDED

Compared with Cc1cn([C@H]2C[C@H](OP(=O)(O)OC[C@H]3O[C@@H](n4cc(C)c(=O)[nH]c4=O)C[C@@H]3OP(=O)(O)OC[C@H]3O[C@@H](n4cc(C)c(=O)[nH]c4=O)C[C@@H]3OP(=O)(O)OC[C@H]3O[C@@H](n4cnc5c(=O)[nH]c(N)nc54)C[C@@H]3OP(=O)(O)OC[C@H]3O[C@@H](n4cc(C)c(=O)[nH]c4=O)C[C@@H]3OP(=O)(O)OC[C@H]3O[C@@H](n4cnc5c(=O)[nH]c(N)nc54)C[C@@H]3OP(=O)(O)OC[C@H]3O[C@@H](n4cc(C)c(=O)[nH]c4=O)C[C@@H]3OP(=O)(O)OCCCCCCNC(=S)Nc3ccc(-c4c5cc(Br)c(=O)c(Br)c-5oc5c(Br)c(O)c(Br)cc45)c(C(=O)O)c3)[C@@H](COP(=O)(O)O[C@H]3C[C@H](n4cc(C)c(=O)[nH]c4=O)O[C@@H]3COP(=O)(O)O[C@H]3C[C@H](n4cc(C)c(=O)[nH]c4=O)O[C@@H]3COP(=O)(O)O[C@H]3C[C@H](n4cnc5c(=O)[nH]c(N)nc54)O[C@@H]3COP(=O)(O)O[C@H]3C[C@H](n4cnc5c(=O)[nH]c(N)nc54)O[C@@H]3CO)O2)c(=O)[nH]c1=O, Cc1cn([C@H]2C[C@H](OP(=O)(O)OC[C@H]3O[C@@H](n4cc(C)c(=O)[nH]c4=O)C[C@@H]3OP(=O)(O)OC[C@H]3O[C@@H](n4cc(C)c(=O)[nH]c4=O)C[C@@H]3OP(=O)(O)OC[C@H]3O[C@@H](n4cnc5c(=O)[nH]c(N)nc54)C[C@@H]3OP(=O)(O)OC[C@H]3O[C@@H](n4cc(C)c(=O)[nH]c4=O)C[C@@H]3OP(=O)(O)OC[C@H]3O[C@@H](n4cnc5c(=O)[nH]c(N)nc54)C[C@@H]3OP(=O)(O)OC[C@H]3O[C@@H](n4cc(C)c(=O)[nH]c4=O)C[C@@H]3OP(=O)(O)OCCCCCCNC(=S)Nc3ccc(-c4c5ccc(=O)cc-5oc5cc(O)ccc45)c(C(=O)O)c3)[C@@H](COP(=O)(O)O[C@H]3C[C@H](n4cc(C)c(=O)[nH]c4=O)O[C@@H]3COP(=O)(O)O[C@H]3C[C@H](n4cc(C)c(=O)[nH]c4=O)O[C@@H]3COP(=O)(O)O[C@H]3C[C@H](n4cnc5c(=O)[nH]c(N)nc54)O[C@@H]3COP(=O)(O)O[C@H]3C[C@H](n4cnc5c(=O)[nH]c(N)nc54)O[C@@H]3CO)O2)c(=O)[nH]c1=O is 6.3-fold higher in IC50: 0.05 µM for the first, 0.315 µM for the second.

Cc1cn([C@H]2C[C@H](OP(=O)(O)OC[C@H]3O[C@@H](n4cc(C)c(=O)[nH]c4=O)C[C@@H]3OP(=O)(O)OC[C@H]3O[C@@H](n4cc(C)c(=O)[nH]c4=O)C[C@@H]3OP(=O)(O)OC[C@H]3O[C@@H](n4cnc5c(=O)[nH]c(N)nc54)C[C@@H]3OP(=O)(O)OC[C@H]3O[C@@H](n4cc(C)c(=O)[nH]c4=O)C[C@@H]3OP(=O)(O)OC[C@H]3O[C@@H](n4cnc5c(=O)[nH]c(N)nc54)C[C@@H]3OP(=O)(O)OC[C@H]3O[C@@H](n4cc(C)c(=O)[nH]c4=O)C[C@@H]3O)[C@@H](COP(=O)(O)O[C@H]3C[C@H](n4cc(C)c(=O)[nH]c4=O)O[C@@H]3COP(=O)(O)O[C@H]3C[C@H](n4cc(C)c(=O)[nH]c4=O)O[C@@H]3COP(=O)(O)O[C@H]3C[C@H](n4cnc5c(=O)[nH]c(N)nc54)O[C@@H]3COP(=O)(O)O[C@H]3C[C@H](n4cnc5c(=O)[nH]c(N)nc54)O[C@@H]3COP(=O)(O)O[C@@H]3C[C@@H](CO)N(C(=O)CCCCCNC(=O)c4ccc(C(=O)O)c(-c5c6ccc(=O)cc-6oc6cc(O)ccc56)c4)C3)O2)c(=O)[nH]c1=O and Cc1cn([C@H]2C[C@H](OP(=O)(O)OC[C@H]3O[C@@H](n4cc(C)c(=O)[nH]c4=O)C[C@@H]3OP(=O)(O)OC[C@H]3O[C@@H](n4cc(C)c(=O)[nH]c4=O)C[C@@H]3OP(=O)(O)OC[C@H]3O[C@@H](n4cnc5c(=O)[nH]c(N)nc54)C[C@@H]3OP(=O)(O)OC[C@H]3O[C@@H](n4cc(C)c(=O)[nH]c4=O)C[C@@H]3OP(=O)(O)OC[C@H]3O[C@@H](n4cnc5c(=O)[nH]c(N)nc54)C[C@@H]3OP(=O)(O)OC[C@H]3O[C@@H](n4cc(C)c(=O)[nH]c4=O)C[C@@H]3O)[C@@H](COP(=O)(O)O[C@H]3C[C@H](n4cc(C)c(=O)[nH]c4=O)O[C@@H]3COP(=O)(O)O[C@H]3C[C@H](n4cc(C)c(=O)[nH]c4=O)O[C@@H]3COP(=O)(O)O[C@H]3C[C@H](n4cnc5c(=O)[nH]c(N)nc54)O[C@@H]3COP(=O)(O)O[C@H]3C[C@H](n4cnc5c(=O)[nH]c(N)nc54)O[C@@H]3COP(=O)(O)OCCCCCCNC(=O)c3ccc(C(=O)O)c(-c4c5ccc(=O)cc-5oc5cc(O)ccc45)c3)O2)c(=O)[nH]c1=O are within 1.5-fold of each other in IC50: 0.32 µM for the first, 0.31 µM for the second.

Going from Cc1cn([C@H]2C[C@H](OP(=O)(O)OC[C@H]3O[C@@H](n4cc(C)c(=O)[nH]c4=O)C[C@@H]3OP(=O)(O)OC[C@H]3O[C@@H](n4cc(C)c(=O)[nH]c4=O)C[C@@H]3OP(=O)(O)OC[C@H]3O[C@@H](n4cnc5c(=O)[nH]c(N)nc54)C[C@@H]3OP(=O)(O)OC[C@H]3O[C@@H](n4cc(C)c(=O)[nH]c4=O)C[C@@H]3OP(=O)(O)OC[C@H]3O[C@@H](n4cnc5c(=O)[nH]c(N)nc54)C[C@@H]3OP(=O)(O)OC[C@H]3O[C@@H](n4cc(C)c(=O)[nH]c4=O)C[C@@H]3O)[C@@H](COP(=O)(O)O[C@H]3C[C@H](n4cc(C)c(=O)[nH]c4=O)O[C@@H]3COP(=O)(O)O[C@H]3C[C@H](n4cc(C)c(=O)[nH]c4=O)O[C@@H]3COP(=O)(O)O[C@H]3C[C@H](n4cnc5c(=O)[nH]c(N)nc54)O[C@@H]3COP(=O)(O)O[C@H]3C[C@H](n4cnc5c(=O)[nH]c(N)nc54)O[C@@H]3COP(=O)(O)OCCCCCCNC(=O)c3cc(Cl)c(C(=O)O)c(-c4c5cc(Cl)c(=O)c(Cl)c-5oc5c(Cl)c(O)c(Cl)cc45)c3Cl)O2)c(=O)[nH]c1=O to Cc1cn([C@H]2C[C@H](OP(=O)(O)OC[C@H]3O[C@@H](n4cc(C)c(=O)[nH]c4=O)C[C@@H]3OP(=O)(O)OC[C@H]3O[C@@H](n4cc(C)c(=O)[nH]c4=O)C[C@@H]3OP(=O)(O)OC[C@H]3O[C@@H](n4cnc5c(=O)[nH]c(N)nc54)C[C@@H]3OP(=O)(O)OC[C@H]3O[C@@H](n4cc(C)c(=O)[nH]c4=O)C[C@@H]3OP(=O)(O)OC[C@H]3O[C@@H](n4cnc5c(=O)[nH]c(N)nc54)C[C@@H]3OP(=O)(O)OC[C@H]3O[C@@H](n4cc(C)c(=O)[nH]c4=O)C[C@@H]3O)[C@@H](COP(=O)(O)O[C@H]3C[C@H](n4cc(C)c(=O)[nH]c4=O)O[C@@H]3COP(=O)(O)O[C@H]3C[C@H](n4cc(C)c(=O)[nH]c4=O)O[C@@H]3COP(=O)(O)O[C@H]3C[C@H](n4cnc5c(=O)[nH]c(N)nc54)O[C@@H]3COP(=O)(O)O[C@H]3C[C@H](n4cnc5c(=O)[nH]c(N)nc54)O[C@@H]3COP(=O)(O)OCCCCCCNC(=O)c3cc(Cl)c(C(=O)O)c(-c4c5cc(Cl)c(=O)cc-5oc5cc(O)c(Cl)cc45)c3Cl)O2)c(=O)[nH]c1=O, the IC50 rises from 0.055 µM to 0.29 µM (5.3-fold). The first is the more potent here.

Compared with Cc1cn([C@H]2C[C@H](OP(=O)(O)OC[C@H]3O[C@@H](n4cc(C)c(=O)[nH]c4=O)C[C@@H]3OP(=O)(O)OC[C@H]3O[C@@H](n4cc(C)c(=O)[nH]c4=O)C[C@@H]3OP(=O)(O)OC[C@H]3O[C@@H](n4cnc5c(=O)[nH]c(N)nc54)C[C@@H]3OP(=O)(O)OC[C@H]3O[C@@H](n4cc(C)c(=O)[nH]c4=O)C[C@@H]3OP(=O)(O)OC[C@H]3O[C@@H](n4cnc5c(=O)[nH]c(N)nc54)C[C@@H]3OP(=O)(O)OC[C@H]3O[C@@H](n4cc(C)c(=O)[nH]c4=O)C[C@@H]3O)[C@@H](COP(=O)(O)O[C@H]3C[C@H](n4cc(C)c(=O)[nH]c4=O)O[C@@H]3COP(=O)(O)O[C@H]3C[C@H](n4cc(C)c(=O)[nH]c4=O)O[C@@H]3COP(=O)(O)O[C@H]3C[C@H](n4cnc5c(=O)[nH]c(N)nc54)O[C@@H]3COP(=O)(O)O[C@H]3C[C@H](n4cnc5c(=O)[nH]c(N)nc54)O[C@@H]3COP(=O)(O)OCCCCCCNC(=O)c3cc(Cl)c(-c4c5cc(Cl)c(O)c(Cl)c5nc5c(Cl)c(O)c(Cl)cc45)c(C(=O)O)c3Cl)O2)c(=O)[nH]c1=O, COc1cc2c(-c3cc(C(=O)NCCCCCCOP(=O)(O)OC[C@H]4O[C@@H](n5cnc6c(=O)[nH]c(N)nc65)C[C@@H]4OP(=O)(O)OC[C@H]4O[C@@H](n5cnc6c(=O)[nH]c(N)nc65)C[C@@H]4OP(=O)(O)OC[C@H]4O[C@@H](n5cc(C)c(=O)[nH]c5=O)C[C@@H]4OP(=O)(O)OC[C@H]4O[C@@H](n5cc(C)c(=O)[nH]c5=O)C[C@@H]4OP(=O)(O)OC[C@H]4O[C@@H](n5cc(C)c(=O)[nH]c5=O)C[C@@H]4OP(=O)(O)OC[C@H]4O[C@@H](n5cc(C)c(=O)[nH]c5=O)C[C@@H]4OP(=O)(O)OC[C@H]4O[C@@H](n5cc(C)c(=O)[nH]c5=O)C[C@@H]4OP(=O)(O)OC[C@H]4O[C@@H](n5cnc6c(=O)[nH]c(N)nc65)C[C@@H]4OP(=O)(O)OC[C@H]4O[C@@H](n5cc(C)c(=O)[nH]c5=O)C[C@@H]4OP(=O)(O)OC[C@H]4O[C@@H](n5cnc6c(=O)[nH]c(N)nc65)C[C@@H]4OP(=O)(O)OC[C@H]4O[C@@H](n5cc(C)c(=O)[nH]c5=O)C[C@@H]4O)ccc3C(=O)O)c3cc(OC)c(=O)c(Cl)c-3oc2c(Cl)c1O is 6-fold higher in IC50: 0.052 µM for the first, 0.31 µM for the second.

For CCCCCCCC/C=C\CCCCCCCC(=O)NCCCOCC(O)COP(=O)(O)O[C@H]1C[C@H](n2cc(C)c(=O)[nH]c2=O)O[C@@H]1COP(=O)(O)O[C@H]1C[C@H](n2cnc3c(=O)[nH]c(N)nc32)O[C@@H]1COP(=O)(O)O[C@H]1C[C@H](n2cc(C)c(=O)[nH]c2=O)O[C@@H]1COP(=O)(O)O[C@H]1C[C@H](n2cnc3c(=O)[nH]c(N)nc32)O[C@@H]1COP(=O)(O)O[C@H]1C[C@H](n2cc(C)c(=O)[nH]c2=O)O[C@@H]1COP(=O)(O)O[C@H]1C[C@H](n2cc(C)c(=O)[nH]c2=O)O[C@@H]1COP(=O)(O)O[C@H]1C[C@H](n2cc(C)c(=O)[nH]c2=O)O[C@@H]1COP(=O)(O)O[C@H]1C[C@H](n2cc(C)c(=O)[nH]c2=O)O[C@@H]1COP(=O)(O)O[C@H]1C[C@H](n2cc(C)c(=O)[nH]c2=O)O[C@@H]1COP(=O)(O)O[C@H]1C[C@H](n2cnc3c(=O)[nH]c(N)nc32)O[C@@H]1COP(=O)(O)O[C@H]1C[C@H](n2cnc3c(=O)[nH]c(N)nc32)O[C@@H]1CO (some centres undefined), the IC50 was 0.2 µM.
